According to patent US20250205259A1, “CLASS OF 7-((FIVE-MEMBERED HETEROCYCLIC)METHYL)-8-CARBOXYLIC ACID-BENZO CYCLIC BORATE DERIVATIVES AND USES THEREOF” (priority 2022, published 2025):
Like-named read-outs stand apart in the source and are kept apart here.

Assays:
Format in all cases: biochemical
OXA-48 = OXA-48 (Klebsiella pneumoniae, UniProt Q6XEC0); experiment: Inhibitory activity on SBL, fluorescent substrate FC-5; conditions: for IC50: read-out: Inhibitory activity on SBL OXA-48 (IC50 class); for inhibitory activity on OXA-48 compared to avibactam: comparison in words
Chain of OXA-48 (Q6XEC0 23-265 limits assumed): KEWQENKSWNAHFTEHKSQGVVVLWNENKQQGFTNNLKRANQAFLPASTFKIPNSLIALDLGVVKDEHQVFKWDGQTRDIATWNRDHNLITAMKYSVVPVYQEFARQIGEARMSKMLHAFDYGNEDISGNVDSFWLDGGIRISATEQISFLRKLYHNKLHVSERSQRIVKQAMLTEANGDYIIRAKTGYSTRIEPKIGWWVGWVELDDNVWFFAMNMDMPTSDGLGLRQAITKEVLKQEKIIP

KPC-2 = KPC-2 (Klebsiella pneumoniae, UniProt Q9F663); experiment: as above; conditions: for IC50: read-out: Inhibitory activity on SBL KPC-2 (IC50 class); for inhibitory activity on KPC-2 compared to avibactam: comparison in words
Chain of KPC-2 (Q9F663 25-293 limits assumed): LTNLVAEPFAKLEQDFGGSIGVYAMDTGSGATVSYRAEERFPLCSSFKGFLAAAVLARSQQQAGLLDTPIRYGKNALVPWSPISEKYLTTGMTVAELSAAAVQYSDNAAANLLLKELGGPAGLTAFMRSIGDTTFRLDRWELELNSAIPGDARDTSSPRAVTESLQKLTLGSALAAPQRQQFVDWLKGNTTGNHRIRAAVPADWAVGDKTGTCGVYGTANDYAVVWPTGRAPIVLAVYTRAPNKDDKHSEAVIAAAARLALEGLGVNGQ

IMP-1 = IMP-1 (Serratia marcescens, UniProt P52699); experiment: Inhibitory activity on MBL, fluorescent substrate FC-5
Chain of IMP-1 (P52699 19-246 limits assumed): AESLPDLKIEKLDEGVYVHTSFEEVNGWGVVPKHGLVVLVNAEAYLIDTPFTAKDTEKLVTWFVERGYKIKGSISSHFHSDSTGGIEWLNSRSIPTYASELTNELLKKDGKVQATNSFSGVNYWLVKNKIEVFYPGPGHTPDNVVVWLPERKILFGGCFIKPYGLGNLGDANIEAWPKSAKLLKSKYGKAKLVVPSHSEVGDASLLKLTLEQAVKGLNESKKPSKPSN

VIM-2 = VIM-2 (Escherichia coli, UniProt Q5U7L7); experiment: as above
TEM-1 = TEM-1 (Escherichia coli, UniProt P62593); experiment: Inhibitory activity on SBL, fluorescent substrate FC-5; conditions: for IC50: read-out: Inhibitory activity on SBL TEM-1 (IC50 class); for inhibitory activity on TEM-1 compared to avibactam: comparison in words
Chain of TEM-1 (P62593 24-286 limits assumed): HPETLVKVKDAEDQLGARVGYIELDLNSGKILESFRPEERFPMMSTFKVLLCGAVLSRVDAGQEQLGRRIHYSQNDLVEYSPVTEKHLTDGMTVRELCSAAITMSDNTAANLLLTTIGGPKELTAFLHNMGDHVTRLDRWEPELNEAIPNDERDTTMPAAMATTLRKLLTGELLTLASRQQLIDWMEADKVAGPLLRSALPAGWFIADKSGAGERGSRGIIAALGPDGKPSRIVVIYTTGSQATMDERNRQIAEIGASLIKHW

CTX-M-14 = CTX-M-14 (Escherichia coli, UniProt Q9L5C7); experiment: as above; conditions: for IC50: read-out: Inhibitory activity on SBL CTX-M-14 (IC50 class); for inhibitory activity on CTX-M-14 compared to avibactam: comparison in words
Chain of CTX-M-14 (Q9L5C7 entry or part of it): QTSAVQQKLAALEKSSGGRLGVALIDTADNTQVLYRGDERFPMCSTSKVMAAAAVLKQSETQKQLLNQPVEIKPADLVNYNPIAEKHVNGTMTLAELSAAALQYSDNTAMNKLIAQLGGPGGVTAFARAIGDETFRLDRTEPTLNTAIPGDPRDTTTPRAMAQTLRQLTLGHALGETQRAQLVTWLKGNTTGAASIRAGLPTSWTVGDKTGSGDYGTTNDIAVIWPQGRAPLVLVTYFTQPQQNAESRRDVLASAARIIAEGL

VIM-1 = VIM-1 (Pseudomonas aeruginosa, UniProt A0A0F7KYQ8); experiment: Inhibitory activity on MBL, fluorescent substrate FC-5
NDM-1 = NDM-1 (Klebsiella pneumoniae, UniProt C7C422); experiment: as above
Chain of NDM-1 (C7C422 29-270 limits assumed): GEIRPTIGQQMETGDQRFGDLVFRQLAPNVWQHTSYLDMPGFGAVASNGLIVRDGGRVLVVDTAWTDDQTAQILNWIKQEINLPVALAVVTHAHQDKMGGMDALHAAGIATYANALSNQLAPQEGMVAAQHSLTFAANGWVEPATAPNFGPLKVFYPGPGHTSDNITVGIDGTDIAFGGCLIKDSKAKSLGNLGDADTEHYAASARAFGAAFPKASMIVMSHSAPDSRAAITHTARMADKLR

NDM-5 = NDM-5 (Klebsiella pneumoniae, UniProt C7C422, M154L/V88L); experiment: as above
Chain of NDM-5 (C7C422 29-270 V88L/M154L): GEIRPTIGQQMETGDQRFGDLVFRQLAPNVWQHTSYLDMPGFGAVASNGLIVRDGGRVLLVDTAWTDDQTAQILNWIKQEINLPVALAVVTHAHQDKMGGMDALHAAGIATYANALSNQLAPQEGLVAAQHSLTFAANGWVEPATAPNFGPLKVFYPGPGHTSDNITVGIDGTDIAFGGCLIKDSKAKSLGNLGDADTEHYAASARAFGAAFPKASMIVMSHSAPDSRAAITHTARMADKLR

[1] = read-out: Inhibitory activity on MBL IMP-1 (IC50 class)
[2] = read-out: Inhibitory activity on MBL VIM-2 (IC50 class)
[3] = read-out: Inhibitory activity on MBL VIM-1 (IC50 class)
[4] = read-out: Inhibitory activity on MBL NDM-1 (IC50 class)
[5] = read-out: Inhibitory activity on MBL NDM-5 (IC50 class)
[6] = read-out: inhibitory activity at a nanomolar-level on NDM-1
[7] = read-out: inhibitory activity at a nanomolar-level on NDM-5
[8] = VIM-1 and/or VIM-2, read-out: inhibitory activity at a nanomolar-level on VIM-1 and/or VIM-2
[9] = IMP-1 and/or IMP-4, read-out: inhibitory activity at a nanomolar-level on IMP-1 and/or IMP-4

Compound	IC50 (OXA-48) [µM]	IC50 (KPC-2) [µM]	IC50 (IMP-1; [1]) [µM]	IC50 (VIM-2; [2]) [µM]	IC50 (TEM-1) [µM]	IC50 (CTX-M-14) [µM]	IC50 (VIM-1; [3]) [µM]	IC50 (NDM-1; [4]) [µM]	IC50 (NDM-5; [5]) [µM]	IC50 (NDM-1; [6]) [µM]	IC50 (NDM-5; [7]) [µM]	IC50 (VIM-1; [8]) [µM]	inhibitory activity on OXA-48 compared to avibactam (OXA-48)	inhibitory activity on KPC-2 compared to avibactam (KPC-2)	IC50 (IMP-1; [9]) [µM]	inhibitory activity on TEM-1 compared to avibactam (TEM-1)	inhibitory activity on CTX-M-14 compared to avibactam (CTX-M-14)	IC50 (VIM-2; read-out: inhibitory activity on VIM-2) [µM]
CC(N)c1cnn(Cc2ccc3c(c2C(=O)O)OB(O)CC3)c1 (stereo not shown) [Compound 39]	0.01 to 1	< 0.01	1 to 100	1 to 100	0.01 to 1	0.01 to 1	1 to 100	1 to 100	1 to 100									
N[C@H]1CC(=O)N(Cc2ccc3c(c2C(=O)O)OB(O)CC3)C1 [Compound 45]	0.01 to 1	0.01 to 1	1 to 100	1 to 100	0.01 to 1	0.01 to 1	1 to 100	1 to 100	1 to 100									
CC(C)(N)C#Cc1cnn(Cc2ccc3c(c2C(=O)O)OB(O)CC3)c1 [Compound 46]	0.01 to 1	< 0.01	1 to 100	0.01 to 1	0.01 to 1	< 0.01	1 to 100	1 to 100	0.01 to 1									
O=C(O)c1c(Cn2cc(C3CNC3)nn2)ccc2c1OB(O)CC2 [Compound 47]	0.01 to 1	0.01 to 1	1 to 100	1 to 100	0.01 to 1	0.01 to 1	1 to 100	0.01 to 1	1 to 100	< 1	< 1							
O=C(O)c1c(Cn2cc3c(n2)CNC3)ccc2c1OB(O)C=C2 [Compound 52]	1 to 100	1 to 100	1 to 100	1 to 100	1 to 100	1 to 100	1 to 100	1 to 100	1 to 100									
O=C(O)c1c(Cn2cc3c(n2)CNC3)ccc2c1OB(O)CC2 [Compound 56]	< 0.01	< 0.01	1 to 100	0.01 to 1	< 0.01	0.01 to 1	0.01 to 1	0.01 to 1	0.01 to 1	< 1	< 1	< 1						
Nc1ccc(-c2cn(Cc3ccc4c(c3C(=O)O)OB(O)CC4)nn2)cc1 [Compound 59]	< 0.01	< 0.01	0.01 to 1	0.01 to 1	< 0.01	< 0.01	0.01 to 1	0.01 to 1	0.01 to 1	< 1	< 1	< 1	better or comparable	better or comparable	< 1	better or comparable	better or comparable	
Nc1ccc(-c2cn(Cc3ccc4c(c3C(=O)O)OB(O)CC4)nn2)cn1 [Compound 60]	< 0.01	< 0.01	0.01 to 1	0.01 to 1	0.01 to 1	0.01 to 1	0.01 to 1	0.01 to 1	0.01 to 1	< 1	< 1	< 1	better or comparable	better or comparable	< 1	better or comparable	better or comparable	
Nc1ncc(-c2cn(Cc3ccc4c(c3C(=O)O)OB(O)CC4)nn2)cn1 [Compound 61]	< 0.01	< 0.01	0.01 to 1	0.01 to 1	0.01 to 1	0.01 to 1	0.01 to 1	0.01 to 1	0.01 to 1	< 1	< 1	< 1	better or comparable	better or comparable	< 1	better or comparable	better or comparable	
NS(=O)(=O)c1ccc(-c2cn(Cc3ccc4c(c3C(=O)O)OB(O)CC4)nn2)cc1 [Compound 62]	< 0.01	< 0.01	0.01 to 1	0.01 to 1	0.01 to 1	< 0.01	0.01 to 1	0.01 to 1	0.01 to 1	< 1	< 1	< 1	better or comparable	better or comparable	< 1	better or comparable	better or comparable	< 0.01
NCc1ccc(-c2cn(Cc3ccc4c(c3C(=O)O)OB(O)CC4)nn2)cc1 [Compound 63]	< 0.01	< 0.01	0.01 to 1	0.01 to 1	0.01 to 1	0.01 to 1	0.01 to 1	0.01 to 1	0.01 to 1	< 1	< 1	< 1	better or comparable	better or comparable	< 1	better or comparable	better or comparable	
NCc1cnn(Cc2ccc3c(c2C(=O)O)OB(O)[C@@H](Sc2nncs2)C3)c1 [Compound 68]	1 to 100	1 to 100	1 to 100	0.01 to 1	1 to 100	1 to 100	1 to 100	0.01 to 1	1 to 100									
CO[C@H]1Cc2ccc(Cn3cc(CN)cn3)c(C(=O)O)c2OB1O [Compound 69]	1 to 100	1 to 100	1 to 100	0.01 to 1	1 to 100	1 to 100	1 to 100	0.01 to 1	1 to 100									
NC1CN(Cc2cnn(Cc3ccc4c(c3C(=O)O)OB(O)CC4)c2)C1 [Compound 75]	1 to 100	0.01 to 1	> 100	> 100	1 to 100	1 to 100	1 to 100	1 to 100	> 100									
